# Source: PubChem BioAssay AID1963825 (Molecular Pharmacology Branch, DTP, NCI, 2024)
# Where “and” joins values, the source holds several entries; their conditions need not be identical. Identical values can stand only once.
# Assay: Anticancer human tumor 997537-175-T-J1-PDC patient-derived colon adenocarcinoma cell line growth inhibition [POLQ]
# Conditions: 997537-175-T-J1-PDC complex spheroid viability, combination with POLQ inhibitors; for viability, T/C: stronger effect = lower value
# Method: Multicellular complex tumor spheroid response to Polymerase (POL) inhibitors (novobiocin, ART-558, RP6685) in combination with a variety of drugs and investigational agents in selected tumor cell lines
# The POL inhibitors (novobiocin, ART-558, and RP6685) were evaluated both individually and in combination with standard of care and investigational anticancer small molecules within a complex spheroid model of solid tumors. . Complex spheroids include a stromal component modeled by human endothelial cells (HUVEC) and fibroblasts modeled by human mesenchymal stem cells (MSCs). The concentration ranges selected for each drug and investigational agent were based upon clinically achievable concentrations if the clinical Cmax of the agent was known.
# Compounds. The drugs and investigational agents: novobiocin (NSC847541), ART-558 (NSC835418), RP-6685 (NSC848927), peposertib (NSC802822), ceralasertib (NSC780249), elimusertib (NSC800525), camonsertib (NSC841442), AZD-1390 (NSC803789), olaparib (NSC753686), talazoparib (NSC767125), rucaparib (NSC756644), sotorasib (NSC818433), MRTX-1133 (NSC836407), SN-38 (NSC673596), topotecan (NSC609699), epotoside (NSC141540), doxorubicin (NSC123127), gemcitabine (NSC613327), 5-fluorouracil (NSC19893), paclitaxel (NSC125973), vemurafenib (NSC761431), MSA-2 (NSC828583), SN-011 (NSC837082), adavosertib (NSC754352), prexasertib (NSC758257), carboplatin (NSC241240) and oxaliplatin (NSC266046), were obtained from the National Cancer Institute (NCI) Developmental Therapeutics Program Chemical Repository (21). The FDA-approved anticancer drug set is available from the Developmental Therapeutics Program at https://dtp.cancer.gov/organization/dscb/obtaining/. […] The stock solutions were prepared in dimethyl sulfoxide (DMSO, Sigma-Aldrich, St. Louis, MO, cat. D2650), except for the platinum compounds which were prepared in saline (Quality Biological, Gaithersburg, MD, cat. 114-055-101), at 800-fold the tested concentration and stored at -70 degrees C prior to their use. All drugs and investigational agents were tested over a range starting from a high concentration at or near the clinical Cmax and decreasing in half-log increments. If the clinical Cmax for an agent had not been determined, the highest concentration tested was 10 microM, except for SN-38, which was tested at a high concentration of 1 microM.
# Cell Culture. All cells were maintained in an incubator at 37 degrees C and 5% CO2 with 95% humidity. The PDC lines were cultured according to standard operating procedures established by the NCI PDMR (https://pdmr.cancer.gov). Table 3 of the manuscript, lists the cell lines along with the number of the three cell types plated to form the mct-spheroids and media for tumor cell growth. After thawing, all PDC lines, except 997537-175-T-J1-PDC and 415267-285-R-J2-PDC, were cultured in Matrigel-coated flasks prepared with a working solution of 1X Ham's F-12 nutrient mix, without supplementation (Thermo Fisher Scientific, cat. 11765054), 100 U/mL penicillin-streptomycin (Thermo Fisher Scientific, cat. 15140122), and 2.5% Matrigel (Corning Inc., Corning, NY, cat. 354248) for the first three passages. The two PDC lines 997537-175-T-J1-PDC and 415267-285-R-J2-PDC were cultured on uncoated flasks. The 857933-349-R-J2-PDC line was cultured in 6C/Colon 1B media containing advanced DMEM/F-12 (Thermo Fisher Scientific, cat. 12634028), 10 mM HEPES (Thermo Fisher Scientific, cat. 15630080), 1X GlutaMAX supplement (Thermo Fisher Scientific, cat. 35050061), 0.1 mg/mL primocin (InvivoGen, San Diego, CA, cat. ant-pm-2), 10% defined fetal bovine serum, heat inactivated (HyClone Laboratories Inc., Logan, UT, cat. SH30070.03HI), 50% L-WRN conditioned media (ATCC, cat. CRL-3276), 1.25 mM N-Acetyl-L-cysteine (Sigma-Aldrich, cat. A9165), 10 mM nicotinamide (Sigma-Aldrich, cat. N0636), 1X B-27 supplement (Thermo Fisher Scientific, cat. 17504044), 1X N-2 supplement (Thermo Fisher Scientific, cat. […]
# [1] = compound alone, run of 12/05/2023
# 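Further: luminescence signal used as a surrogate for viable cells; spheroids exposed to drugs for seven days before readout.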
Structure (SMILES),"viability, T/C (compound 0.0316 µM)","viability, T/C (compound 0.1 µM)","viability, T/C (compound 0.316 µM)","viability, T/C (compound 1 µM)","viability, T/C (compound 3.16 µM)","viability, T/C (compound 10 µM)",IC50 (curve of compound),"viability, T/C (compound 0.00316 µM)","viability, T/C (compound 0.01 µM)","viability, T/C (compound 0.00949 µM)","viability, T/C (compound 0.03 µM)","viability, T/C (compound 0.0949 µM)","viability, T/C (compound 0.3 µM)","viability, T/C (compound 0.949 µM)","viability, T/C (compound 3 µM)","viability, T/C (compound 0.000316 µM)","viability, T/C (compound 0.001 µM)","IC50 (compound alone, run of 11/27/2023)",IC50 [1]
C=CC(=O)N1CCN(c2nc(=O)n(-c3c(C)ccnc3C(C)C)c3nc(-c4c(O)cccc4F)c(F)cc23)C(C)C1 (stereo not drawn),88.3% and 103% and 94.8%,92.3% and 93.2% and 91.2%,92.7% and 102% and 101%,99.6% and 91.8% and 112%,103% (2×) and 104%,101% and 89.6% and 87.3%,> 10 µM,,,,,,,,,,,,
C=CCn1c(=O)c2cnc(Nc3ccc(N4CCN(C)CC4)cc3)nc2n1-c1cccc(C(C)(C)O)n1,73.2% and 89.1% and 83.6%,94% and 101% and 86.6%,95.9% and 94.9% and 76.8%,74.5% and 63.4% and 69.5%,,,> 1 µM,98.4% and 90.3% and 83.5%,96.6% and 88.9% and 102%,,,,,,,,,,
CC(=O)O[C@H]1C(=O)[C@@]2(C)[C@H]([C@H](OC(=O)c3ccccc3)[C@]3(O)C[C@H](OC(=O)[C@H](O)[C@@H](NC(=O)c4ccccc4)c4ccccc4)C(C)=C1C3(C)C)[C@]1(OC(C)=O)CO[C@@H]1C[C@@H]2O,,,,,,,0.0125 µM and 0.0207 µM and < 0.00949 µM,,,55.5% and 66.9% and 49.9%,33.4% and 42.3% and 41.3%,22.8% and 35.5% and 38.7%,32.1% and 41.2% and 22.7%,32% and 28.6% and 22%,30.9% and 40.5% and 33.2%,,,,
CC(C)n1c(=O)n(C)c2cnc3cc(F)c(-c4ccc(OCCCN5CCCCC5)nc4)cc3c21,90.1% and 93% and 37.9%,103% and 96% and 38.9%,100% and 83.5% and 34.2%,97.9% and 102% and 32.9%,85.7% and 92.1% and 37.8%,73.3% and 87.2% and 43.2%,,,,,,,,,,,,,
CC1COCCN1c1cc(-c2ccnn2C)c2ccnc(-c3ccn[nH]3)c2n1 (stereo not drawn),94.7% and 97.9% and 86.9%,62% and 63.5% and 79.7%,64.5% and 49% and 65.9%,44.2% and 44.4% and 50.7%,68% and 32.4% and 51.1%,60.6% and 53.7% and 53.6%,,,,,,,,,,,,,
CC1COCCN1c1cc(C2(S(C)(=N)=O)CC2)nc(-c2ccnc3[nH]ccc23)n1 (stereo not drawn),92.8% and 97.8% and 110%,99.5% and 101% and 102%,101% and 84.7% and 82.3%,91.7% and 86.5% and 92.7%,66% and 59.8% and 74.8%,49.9% and 58.9% and 53.6%,9.98 µM and > 10 µM,,,,,,,,,,,,
CCCS(=O)(=O)Nc1ccc(F)c(C(=O)c2c[nH]c3ncc(-c4ccc(Cl)cc4)cc23)c1F,97.4% and 90.7% and 82.4%,82.1% and 86.5% and 97.7%,88.1% and 82.6% and 89.7%,86.5% and 84.5% and 82.5%,65.1% and 72.9% and 76%,26.5% and 42% and 22.9%,4.97 µM and 7.51 µM and 5.5 µM,,,,,,,,,,,,
CC[C@@]1(O)C(=O)OCc2c1cc1n(c2=O)Cc2cc3c(CN(C)C)c(O)ccc3nc2-1,94.5% and 75.5% and 93%,71.6% and 61.9% (2×),,,,,> 0.1 µM,98.1% and 91.1% and 111%,105% and 101% and 97.3%,,,,,,,100% and 93.8% and 93.3%,96.1% and 102% and 112%,,
CCc1c2c(nc3ccc(O)cc13)-c1cc3c(c(=O)n1C2)COC(=O)[C@]3(O)CC,35.3% and 40.2% and 35.2%,19.1% and 17.6% and 15.7%,5.98% and 6.37% and 8.27%,5.57% and 4.62% and 6.01%,,,0.0172 µM and 0.0199 µM and 0.0184 µM,68.9% and 81% and 97.3%,63.4% and 64.7% and 67%,,,,,,,,,,
CCc1cc2c(N3CCc4c(cc(Cn5ccnc5)cc4-c4cn(C)nc4C(F)(F)F)C3=O)cc(C)nc2c(OC)n1,90.5% and 98.7% and 107%,95.7% and 82% and 107%,90.7% and 71.5% and 94.3%,78.7% and 91.3% and 92.2%,69.9% and 86.2% and 67.7%,58% and 61.9% and 41.5%,> 10 µM and 6.97 µM,,,,,,,,,,,,
CCc1cc2c(N3CCc4c(cc(Cn5ccnc5)cc4-c4cn(C)nc4C(F)(F)F)C3=O)ccnc2c(OC)n1,95.3% and 92.8% and 103%,79.7% and 104% and 98.2%,98.5% and 76.2% and 96.9%,84.6% and 90.4% and 91.4%,76.5% and 68.3% and 72.7%,57.5% and 79.9% and 53.8%,> 10 µM,,,,,,,,,,,,
CNCc1ccc(-c2[nH]c3cc(F)cc4c3c2CCNC4=O)cc1,90.4% and 94.4% and 96.8%,96.6% and 93.5% and 90.8%,91% and 108% and 106%,98.3% and 93.2% and 88.9%,100% and 103% and 99.9%,95% and 98.8% and 89.1%,> 10 µM,,,,,,,,,,,,
COc1cc(C2c3cc4c(cc3C(OC3OC5COC(C)OC5C(O)C3O)C3COC(=O)C23)OCO4)cc(OC)c1O (stereo not drawn),81.2% and 92.1% and 89.8%,90% and 102% and 100%,86.5% and 100% and 114%,102% and 92.9% and 99.7%,92.7% and 81% and 88.9%,76.3% and 68.8% and 51.7%,> 10 µM,,,,,,,,,,,,
COc1cc2cc(C(=O)CCC(=O)O)sc2cc1OC,102% and 105% and 95.7%,99% and 93.1% and 94.9%,85.6% and 113% and 104%,107% and 89.6% and 100%,106% and 100% and 91.6%,98.2% and 83.3% and 99.8%,> 10 µM,,,,,,,,,,,,
COc1ccc([C@@H](O)c2cc(-c3ncnc4cc(N5CCOCC5)ccc34)c(F)cc2Cl)nn1,107% and 102% and 108%,103% and 94.5% and 93.7%,90.6% and 96.5% and 106%,100% and 105% and 104%,94.8% and 87.4% and 97.1%,83.2% and 80.4% and 92%,> 10 µM,,,,,,,,,,,,
COc1cccc(OCCCN)c1-c1cc(Nc2cnc(C#N)cn2)n[nH]1,54.1% and 72% and 72.3%,52.4% and 57.1% and 43.6%,24.1% and 36.5% and 25.2%,25.2% and 27.3% and 13.4%,,,0.0658 µM and 0.135 µM and 0.0801 µM,96.8% and 107% and 96.1%,106% and 98.4% and 92.4%,,,,,,,,,,
COc1cccc2c1C(=O)c1c(O)c3c(c(O)c1C2=O)CC(O)(C(=O)CO)CC3OC1CC(N)C(O)C(C)O1 (stereo not drawn),91.6% and 101% and 113%,81.9% and 97% and 103%,87.3% and 68.5% and 110%,93.9% and 90% and 81.8%,57.7% and 37.8% and 27.6%,8.92% and 9.36% and 7.86%,3.79 µM and 2.41 µM and 1.97 µM,,,,,,,,,,,,
Cc1cccc(N(C)C(=O)C2C(O)CCN2c2nc(C)cc(C(F)(F)F)c2C#N)c1 (stereo not drawn),97.6% [middle of 13 runs],98.6% [middle of 13 runs],97.3% [middle of 13 runs],101% [middle of 13 runs],101% [middle of 13 runs],96.9% [middle of 13 runs],,,,,,,,,,,,> 10 µM,> 10 µM
Cn1ncnc1[C@H]1c2n[nH]c(=O)c3cc(F)cc(c23)N[C@@H]1c1ccc(F)cc1,104% and 106% and 100%,94.7% and 98.2% and 90%,,,,,> 0.1 µM,80.6% and 115% and 106%,110% and 98.3% and 88.3%,,,,,,,93.6% and 104% and 95.7%,114% and 96.4% and 80.4%,,
Nc1ccc(C#CCN(C(=O)Cc2ncc(C(F)(F)F)cc2C(F)(F)F)c2ccc(F)cc2)nn1,99.2% [middle of 13 runs],97.2% [middle of 13 runs],99.4% [middle of 13 runs],,98.6% [middle of 13 runs],101% [middle of 13 runs],,,,,,,,,,,,,> 10 µM
Nc1ccn(C2OC(CO)C(O)C2(F)F)c(=O)n1 (stereo not drawn),104% (2×) and 98.4%,93.9% and 111% and 97.5%,85.7% and 84.1% and 75%,69.6% and 75.9% and 84.9%,80.9% and 85.4% and 87.5%,85% and 80% and 70.2%,> 10 µM,,,,,,,,,,,,
O=C(c1cc(Cc2n[nH]c(=O)c3ccccc23)ccc1F)N1CCN(C(=O)C2CC2)CC1,98.8% and 31.4% and 107%,107% and 36% and 112%,99.5% and 36% and 104%,87.5% and 38% and 104%,121% and 40.2% and 95.3%,89.1% and 32.3% and 94.1%,,,,,,,,,,,,,
O=c1[nH]cc(F)c(=O)[nH]1,86.3% and 95% and 102%,99.9% and 91.8% and 89.1%,108% and 90% and 106%,92.9% and 96.2% and 106%,102% and 92% and 105%,83.8% and 76.2% and 81.4%,> 10 µM,,,,,,,,,,,,
